Test results: ChEMBL document CHEMBL1909046, “DrugMatrix in vitro pharmacology data”

Columns and labels:
[1] = biological target: T1, Alpha-1D adrenergic receptor (Homo sapiens, UniProt P25100); assay type: cell membranes, HEK293, Membrane; settings: hek293; also: in other assays of this panel Not Active means under 50% inhibition at 10 µM
T1 sequence (P25100 whole entry): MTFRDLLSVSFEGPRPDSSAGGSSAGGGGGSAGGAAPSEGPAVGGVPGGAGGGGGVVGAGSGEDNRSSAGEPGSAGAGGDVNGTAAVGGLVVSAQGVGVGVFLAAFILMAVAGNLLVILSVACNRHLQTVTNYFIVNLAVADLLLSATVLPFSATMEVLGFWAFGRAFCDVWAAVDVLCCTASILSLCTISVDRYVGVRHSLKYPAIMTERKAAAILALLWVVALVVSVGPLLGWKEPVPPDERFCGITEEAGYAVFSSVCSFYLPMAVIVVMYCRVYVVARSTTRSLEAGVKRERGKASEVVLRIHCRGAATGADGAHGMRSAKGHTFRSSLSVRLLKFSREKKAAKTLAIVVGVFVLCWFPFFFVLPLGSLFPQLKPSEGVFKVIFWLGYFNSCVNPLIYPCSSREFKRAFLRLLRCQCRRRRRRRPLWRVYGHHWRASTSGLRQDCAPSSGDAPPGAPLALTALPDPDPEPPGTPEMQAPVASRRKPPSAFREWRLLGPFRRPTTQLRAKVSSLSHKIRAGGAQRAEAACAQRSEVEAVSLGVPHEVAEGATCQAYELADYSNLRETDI

[2] = biological target: T2, Alpha-2C adrenergic receptor (Homo sapiens, UniProt P18825); assay: DRUGMATRIX: Adrenergic Alpha-2C radioligand binding (ligand: [3H] MK-912); assay type: cell membranes, Sf9, Membrane; settings: sf9
T2 sequence (P18825 whole entry): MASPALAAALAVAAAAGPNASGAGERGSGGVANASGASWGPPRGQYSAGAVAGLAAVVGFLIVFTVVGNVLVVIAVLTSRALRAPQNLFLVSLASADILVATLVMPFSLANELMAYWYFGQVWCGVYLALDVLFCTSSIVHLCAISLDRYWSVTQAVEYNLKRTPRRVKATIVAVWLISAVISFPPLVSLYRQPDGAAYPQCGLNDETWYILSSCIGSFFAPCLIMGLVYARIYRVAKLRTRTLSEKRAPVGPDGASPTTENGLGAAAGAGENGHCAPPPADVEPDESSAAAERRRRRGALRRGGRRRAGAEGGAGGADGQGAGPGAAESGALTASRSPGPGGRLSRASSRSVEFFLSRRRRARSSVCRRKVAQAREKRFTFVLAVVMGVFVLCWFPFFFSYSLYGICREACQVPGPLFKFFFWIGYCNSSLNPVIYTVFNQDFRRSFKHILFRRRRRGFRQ

[3] = biological target: Beta-2 adrenergic receptor (Homo sapiens, UniProt P07550); assay: DRUGMATRIX: Adrenergic beta2 radioligand binding (ligand: [3H] CGP-12177); assay type: cell membranes, Membrane; settings: cho; Not Active = under 50% inhibition at 10 µM
Sequence of Beta-2 adrenergic receptor (P07550 whole entry): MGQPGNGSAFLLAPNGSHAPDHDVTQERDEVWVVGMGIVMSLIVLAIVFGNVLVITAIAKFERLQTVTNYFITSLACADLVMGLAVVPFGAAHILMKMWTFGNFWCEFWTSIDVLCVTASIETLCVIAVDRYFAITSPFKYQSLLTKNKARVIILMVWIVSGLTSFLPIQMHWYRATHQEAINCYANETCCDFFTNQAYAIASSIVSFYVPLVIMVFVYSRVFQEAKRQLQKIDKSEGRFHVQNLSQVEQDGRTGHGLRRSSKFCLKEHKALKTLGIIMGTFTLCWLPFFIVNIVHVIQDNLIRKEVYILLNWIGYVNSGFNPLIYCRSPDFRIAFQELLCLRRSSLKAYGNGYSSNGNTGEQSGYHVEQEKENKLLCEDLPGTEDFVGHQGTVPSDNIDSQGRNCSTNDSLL

[4] = biological target: Aldo-keto reductase family 1 member B1 (Rattus norvegicus, UniProt P07943); assay type: tissue-based, Lens of camera-type eye;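 also: inhibition of aldose reductase enzyme activity, measured with DL-glyceraldehyde as the substrate; in other assays of this panel Not Active means under 50% inhibition at 10 µM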
[5] = DRUGMATRIX: Tumor Necrosis Factor (TNF), Non-Selective radioligand binding (ligand: [125I] TNF-alpha); assay type: cell membranes, Membrane; settings: u-937; Not Active = under 50% inhibition at 10 µM
[6] = biological target: T3, Vasoactive intestinal polypeptide receptor 1 (Homo sapiens, UniProt P32241); assay type: cell membranes, Membrane; settings: ht-29; also: in other assays of this panel Not Active means under 50% inhibition at 10 µM
T3 sequence (P32241 whole entry): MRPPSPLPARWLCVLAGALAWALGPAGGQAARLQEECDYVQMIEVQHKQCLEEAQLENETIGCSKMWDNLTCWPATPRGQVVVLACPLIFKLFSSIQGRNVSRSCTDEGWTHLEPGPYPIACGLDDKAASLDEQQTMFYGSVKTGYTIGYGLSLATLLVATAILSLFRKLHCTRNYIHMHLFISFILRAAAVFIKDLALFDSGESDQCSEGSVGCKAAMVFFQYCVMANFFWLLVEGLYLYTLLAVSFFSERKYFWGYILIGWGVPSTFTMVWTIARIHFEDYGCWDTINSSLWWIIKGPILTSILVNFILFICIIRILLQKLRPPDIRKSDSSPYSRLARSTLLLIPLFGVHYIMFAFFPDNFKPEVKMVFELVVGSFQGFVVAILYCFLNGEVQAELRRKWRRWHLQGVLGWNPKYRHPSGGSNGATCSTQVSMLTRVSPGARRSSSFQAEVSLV

[7] = DRUGMATRIX: Nicotinic Acetylcholine radioligand binding (ligand: [125I] Epibatidine); assay type: cell membranes, Membrane; settings: imr-32; Not Active = under 50% inhibition at 10 µM
[8] = biological target: Mu-type opioid receptor (Homo sapiens, UniProt P35372); assay: DRUGMATRIX: Opiate mu (OP3, MOP) radioligand binding (ligand: [3H] Diprenorphine); assay type: cell membranes, CHO-K1, Membrane; settings: cho-k1; Not Active = under 50% inhibition at 10 µM
Sequence of Mu-type opioid receptor (P35372 whole entry): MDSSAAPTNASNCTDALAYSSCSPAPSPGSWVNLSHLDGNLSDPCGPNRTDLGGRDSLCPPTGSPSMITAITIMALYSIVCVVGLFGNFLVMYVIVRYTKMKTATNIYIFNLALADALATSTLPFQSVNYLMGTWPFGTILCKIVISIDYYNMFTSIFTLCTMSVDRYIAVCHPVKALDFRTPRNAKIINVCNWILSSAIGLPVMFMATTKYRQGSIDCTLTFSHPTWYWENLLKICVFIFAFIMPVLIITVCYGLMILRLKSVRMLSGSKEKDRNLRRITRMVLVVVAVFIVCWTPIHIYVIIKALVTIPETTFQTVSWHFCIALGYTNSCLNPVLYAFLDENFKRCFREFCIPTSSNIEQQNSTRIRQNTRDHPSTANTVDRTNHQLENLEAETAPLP

[9] = DRUGMATRIX: Platelet-Derived Growth Factor (PDGF) radioligand binding (ligand: [125I] PDGF); assay type: cell-based; settings: nih3t3; Not Active = under 50% inhibition at 10 µM
[10] = biological target: T4, Cathepsin G (Homo sapiens, UniProt P08311); assay type: tissue-based; settings: neutrophil;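 also: inhibition of Cathepsin G enzyme activity, tested on an AMC-conjugated peptide substrate; in other assays of this panel Not Active means under 50% inhibition at 10 µM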
T4 sequence (P08311 whole entry): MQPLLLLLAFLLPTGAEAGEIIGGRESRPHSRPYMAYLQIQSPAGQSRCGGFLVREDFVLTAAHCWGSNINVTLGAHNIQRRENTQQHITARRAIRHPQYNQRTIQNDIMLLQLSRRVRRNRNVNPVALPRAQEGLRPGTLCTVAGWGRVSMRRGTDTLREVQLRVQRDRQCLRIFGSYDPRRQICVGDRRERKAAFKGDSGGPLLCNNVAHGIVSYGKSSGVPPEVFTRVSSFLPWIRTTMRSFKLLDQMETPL

[11] = biological target: Mitogen-activated protein kinase 1 (Homo sapiens, UniProt P28482); assay: DRUGMATRIX: Protein Serine/Threonine Kinase, ERK2 enzyme inhibition (substrate: Myelin Basic Protein); design: species or system Escherichia coli; settings: Not Active = under 50% inhibition at 10 µM
Sequence of Mitogen-activated protein kinase 1 (P28482 whole entry): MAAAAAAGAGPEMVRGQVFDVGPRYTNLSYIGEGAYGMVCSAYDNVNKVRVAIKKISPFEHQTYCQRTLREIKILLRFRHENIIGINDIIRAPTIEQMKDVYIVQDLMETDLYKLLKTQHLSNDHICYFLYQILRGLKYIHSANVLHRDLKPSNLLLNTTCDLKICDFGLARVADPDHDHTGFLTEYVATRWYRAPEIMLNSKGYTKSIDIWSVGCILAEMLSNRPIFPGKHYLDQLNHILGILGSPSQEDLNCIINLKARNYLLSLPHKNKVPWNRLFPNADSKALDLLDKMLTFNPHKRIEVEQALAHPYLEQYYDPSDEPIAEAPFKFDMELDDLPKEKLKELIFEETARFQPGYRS

[12] = biological target: 5-hydroxytryptamine receptor 1B (Rattus norvegicus, UniProt P28564); assay type: cell membranes, Wistar, Cerebral cortex, Membrane; also: in other assays of this panel Not Active means under 50% inhibition at 10 µM
Sequence of 5-hydroxytryptamine receptor 1B (P28564 whole entry): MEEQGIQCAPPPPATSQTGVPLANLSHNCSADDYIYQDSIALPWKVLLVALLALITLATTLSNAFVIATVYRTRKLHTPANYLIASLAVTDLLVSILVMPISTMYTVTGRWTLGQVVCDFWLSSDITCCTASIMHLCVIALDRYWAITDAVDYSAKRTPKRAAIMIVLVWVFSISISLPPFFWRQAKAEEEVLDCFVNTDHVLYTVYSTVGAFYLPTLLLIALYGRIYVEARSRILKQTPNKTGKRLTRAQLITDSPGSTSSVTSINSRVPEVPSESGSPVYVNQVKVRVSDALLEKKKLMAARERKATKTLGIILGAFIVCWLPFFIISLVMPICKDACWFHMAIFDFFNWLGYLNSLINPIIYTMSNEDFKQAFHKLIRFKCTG

[13] = biological target: Cytochrome P450 2E1 (Homo sapiens, UniProt P05181); settings: bti-tn-5b1-4; also: in other assays of this panel Not Active means under 50% inhibition at 10 µM
Sequence of Cytochrome P450 2E1 (P05181 whole entry): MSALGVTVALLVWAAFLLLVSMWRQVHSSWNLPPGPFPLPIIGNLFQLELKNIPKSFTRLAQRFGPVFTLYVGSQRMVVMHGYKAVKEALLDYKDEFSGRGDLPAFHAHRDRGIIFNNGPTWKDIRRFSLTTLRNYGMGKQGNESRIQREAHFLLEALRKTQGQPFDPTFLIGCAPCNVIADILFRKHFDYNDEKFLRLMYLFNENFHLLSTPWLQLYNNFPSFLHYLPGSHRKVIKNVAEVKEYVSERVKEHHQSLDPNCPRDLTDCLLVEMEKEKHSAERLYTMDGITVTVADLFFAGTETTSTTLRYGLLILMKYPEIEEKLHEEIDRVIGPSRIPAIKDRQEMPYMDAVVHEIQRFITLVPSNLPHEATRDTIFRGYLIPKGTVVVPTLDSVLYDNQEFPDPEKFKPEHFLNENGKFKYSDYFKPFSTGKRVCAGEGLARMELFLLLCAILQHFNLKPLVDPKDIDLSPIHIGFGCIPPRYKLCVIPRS

COc1ccc2cc(CC(=O)O)ccc2c1
Not Active: IC50 [1] | IC50 [2] | IC50 [3] | IC50 [4] | IC50 [5] | Ki [5] | IC50 [6] | IC50 [7] | Ki [7] | IC50 [8] | IC50 [9] | Ki [9] | IC50 [10] | IC50 [11] | IC50 [12] | IC50 [13] | Ki [13]

CC=CC(=O)N(CC)c1ccccc1C
Not Active: IC50 [1] | IC50 [2] | IC50 [3] | IC50 [4] | IC50 [5] | Ki [5] | IC50 [6] | IC50 [7] | Ki [7] | IC50 [8] | IC50 [9] | Ki [9] | IC50 [10] | IC50 [11] | IC50 [12] | IC50 [13] | Ki [13]

C=C1C(=O)O[C@@H]2C3O[C@]3(C)CC/C=C(\C)CC[C@@H]12 (some centres not stated)
Not Active: IC50 [1] | IC50 [2] | IC50 [3] | IC50 [4] | IC50 [5] | Ki [5] | IC50 [6] | IC50 [7] | Ki [7] | IC50 [8] | IC50 [9] | Ki [9] | IC50 [10] | IC50 [11] | IC50 [12] | IC50 [13] | Ki [13]

COc1ccc2c(c1)c(CC(=O)OCC(=O)O)c(C)n2C(=O)c1ccc(Cl)cc1 [ACEMETACIN]
Not Active: IC50 [1] | IC50 [2] | IC50 [3] | IC50 [4] | IC50 [5] | Ki [5] | IC50 [6] | IC50 [7] | Ki [7] | IC50 [8] | IC50 [9] | Ki [9] | IC50 [10] | IC50 [11] | IC50 [12] | IC50 [13] | Ki [13]

CCCSc1ccc2nc(NC(=O)OC)[nH]c2c1 [ALBENDAZOLE]
Not Active: IC50 [1] | IC50 [2] | IC50 [3] | IC50 [4] | IC50 [5] | Ki [5] | IC50 [6] | IC50 [7] | Ki [7] | IC50 [8] | IC50 [9] | Ki [9] | IC50 [10] | IC50 [11] | IC50 [12] | IC50 [13] | Ki [13]

Cc1[nH]cnc1CN1CCc2c(c3ccccc3n2C)C1=O [ALOSETRON]
Not Active: IC50 [1] | IC50 [2] | IC50 [3] | IC50 [4] | IC50 [5] | Ki [5] | IC50 [6] | IC50 [7] | Ki [7] | IC50 [8] | IC50 [9] | Ki [9] | IC50 [10] | IC50 [11] | IC50 [12] | IC50 [13] | Ki [13]

O=P1(NCCCl)OCCCN1CCCl (configuration not stated) [IFOSFAMIDE]
Not Active: IC50 [1] | IC50 [2] | IC50 [3] | IC50 [4] | IC50 [5] | Ki [5] | IC50 [6] | IC50 [7] | Ki [7] | IC50 [8] | IC50 [9] | Ki [9] | IC50 [10] | IC50 [11] | IC50 [12]
